Data reported in the supplement of paper PMC9663587.

Key:
Test in all cases: area over the GR curve, 72 h; higher = more effect;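 also: Dye Drop or Deep Dye Drop imaging of viable cells in 384-well plates (Hoechst nuclei, LIVE/DEAD dye), nine half-log doses, GR normalized to DMSO controls and time-zero plates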
EVSAT = tested on: EVSAT
BT474 = tested on: BT474
HCC1395 = tested on: HCC1395
MCF10A = tested on: MCF10A
AU565 = tested on: AU565
SUM229PE = tested on: SUM229PE
MDAMB175VII = tested on: MDAMB175VII
184A1 = tested on: 184A1
HCC38 = tested on: HCC38
SKBR3 = tested on: SKBR3
HCC70 = tested on: HCC70
PDXHCI002 = tested on: PDXHCI002
HCC1937 = tested on: HCC1937

Structure (SMILES)	area over the GR curve (EVSAT) [GR]	area over the GR curve (BT474) [GR]	area over the GR curve (HCC1395) [GR]	area over the GR curve (MCF10A) [GR]	area over the GR curve (AU565) [GR]	area over the GR curve (SUM229PE) [GR]	area over the GR curve (MDAMB175VII) [GR]	area over the GR curve (184A1) [GR]	area over the GR curve (HCC38) [GR]	area over the GR curve (SKBR3) [GR]	area over the GR curve (HCC70) [GR]	area over the GR curve (PDXHCI002) [GR]	area over the GR curve (HCC1937) [GR]	area over the GR curve (HCC1395; main component drawn) [GR]	area over the GR curve (MCF10A; main component drawn) [GR]	area over the GR curve (HCC38; main component drawn) [GR]	area over the GR curve (SKBR3; main component drawn) [GR]	area over the GR curve (HCC70; main component drawn) [GR]	area over the GR curve (PDXHCI002; main component drawn) [GR]	area over the GR curve (HCC1937; main component drawn) [GR]
COc1ccc2c(c1)[C@]1(C[C@H]1c1ccc3c(/C=C/c4ccc(CN5C[C@@H](C)O[C@@H](C)C5)cc4)n[nH]c3c1)C(=O)N2	0.531	0.475	0.709	0.817	0.725	0.675	0.589	0.668	0.852	0.711	1.11	0.489	0.655	–	–	–	–	–	–	–
COc1cccc(OCCCN)c1-c1cc(Nc2cnc(C#N)cn2)n[nH]1	0.0022	0.186	0.832	0.301	0.5	0.342	0.245	0.0009	0.858	0.802	1.64	0.045	0.55	–	–	–	–	–	–	–
CC(=O)Nc1cccc(-n2c(=O)n(C3CC3)c(=O)c3c(Nc4ccc(I)cc4F)n(C)c(=O)c(C)c32)c1 (max 1 µM)	0.0263	-0.316	0.185	0.527	-0.0244	0.472	0.938	0.659	0.207	0.182	0.692	0.2	0.138	–	–	–	–	–	–	–
CCc1cnn2c(NCc3ccc[n+]([O-])c3)cc(N3CCCC[C@H]3CCO)nc12 (max 1 µM)	0.0948	0.728	0.644	0.528	0.857	0.532	0.607	0.636	0.62	0.835	0.803	0.584	0.475	–	–	–	–	–	–	–
CC(=O)c1c(C)c2cnc(Nc3ccc(N4CCNCC4)cn3)nc2n(C2CCCC2)c1=O (max 3.162 µM)	0.141	0.194	0.274	0.188	0.296	0.223	0.763	0.375	0.371	0.285	-0.0552	0.273	-0.0629	–	–	–	–	–	–	–
CCc1cncnc1N1CCN(Cc2nc3ccc(C(F)(F)F)cc3[nH]2)CC1 (max 10 µM)	0.0249	-0.104	0.0037	0.0475	0.0402	0.0479	0.314	-0.0012	-0.0304	0.0204	-0.077	-0.045	0.039	–	–	–	–	–	–	–
CCCCOc1c(C(=O)c2c(F)cc(C)cc2F)c[nH]c2nncc1-2 (max 10 µM)	0.322	0.137	0.807	0.39	0.514	0.662	0.787	0.954	0.768	0.541	0.914	0.108	0.917	–	–	–	–	–	–	–
CCN1CCN(Cc2ccc(Nc3ncc(F)c(-c4cc(F)c5nc(C)n(C(C)C)c5c4)n3)nc2)CC1 (max 10 µM)	0.324	0.329	0.562	0.381	0.657	0.383	0.901	0.635	0.64	0.536	0.145	0.764	0.102	–	–	–	–	–	–	–
CNc1nc(-c2ccc3c(N)n[nH]c3c2)cc(N2C[C@@H](C(=O)NC3CCCCC3)CC[C@H]2C)n1 (max 10 µM)	0.257	0.332	0.187	-0.0162	0.223	0.0671	0.59	0.135	0.0564	0.318	0.288	-0.0573	0.146	–	–	–	–	–	–	–
CO[C@@H](C)Cn1c(=O)n(C)c2cnc3ccc(-c4cncc(C(C)(C)O)c4)cc3c21 (max 10 µM)	0.795	1.15	0.618	0.447	0.793	0.409	1.32	0.761	0.664	0.824	0.8	0.228	0.485	–	–	–	–	–	–	–
Cc1nn(C)c(COc2ccc(N3CCN(S(=O)(=O)N(C)C)CC3)cc2)c1-c1cccc2c(CCCOc3cccc4ccccc34)c(C(=O)O)n(CCN3CCOCC3)c12 (max 10 µM)	0.0097	-0.0275	-0.0037	0.0018	-0.0201	0.0397	0.0271	0.0952	0.0151	0.0389	0.0018	-0.05	0.006	–	–	–	–	–	–	–
CN(C)CC[C@H](CSc1ccccc1)Nc1ccc(S(=O)(=O)NC(=O)c2ccc(N3CCN(Cc4ccccc4-c4ccc(Cl)cc4)CC3)cc2)cc1[N+](=O)[O-] [ABT-737] (max 10 µM)	0.0258	-0.0268	-0.0157	0.0104	0.0543	0.0913	0.0499	0.153	0.296	-0.0209	0.0935	0.0548	0.0829	–	–	–	–	–	–	–
C=CCn1c(=O)c2cnc(Nc3ccc(N4CCN(C)CC4)cc3)nc2n1-c1cccc(C(C)(C)O)n1 [AZD1775] (max 10 µM)	0.228	0.387	0.886	0.0857	0.496	0.756	0.587	0.366	0.961	0.528	1.15	0.483	0.707	–	–	–	–	–	–	–
CNC(=O)c1cccc(-c2ccc3c(N4CCOC[C@@H]4C)nc(N4CCOC[C@@H]4C)nc3n2)c1 [AZD2014] (max 10 µM)	0.75	1.01	0.582	0.4	0.757	0.484	1.35	0.729	0.418	0.87	0.778	0.0467	0.52	–	–	–	–	–	–	–
NC1(C(=O)N[C@@H](CCO)c2ccc(Cl)cc2)CCN(c2nc[nH]c3nccc2-3)CC1 [AZD5363] (max 10 µM)	0.728	0.568	0.5	0.0283	0.205	0.234	0.622	0.122	0.0939	0.23	0.661	-0.085	0.353	–	–	–	–	–	–	–
C[C@@H]1COCCN1c1cc(C2([S@](C)(=N)=O)CC2)nc(-c2cc[nH]c3nccc2-3)n1 [AZD6738] (max 10 µM)	-0.0225	0.0277	0.194	0.0334	0.0383	0.0968	0.063	-0.0342	0.247	0.335	0.283	0.0278	-0.0947	–	–	–	–	–	–	–

Structure (SMILES)	area over the GR curve (EVSAT) [GR]	area over the GR curve (BT474) [GR]	area over the GR curve (HCC1395) [GR]	area over the GR curve (MCF10A) [GR]	area over the GR curve (AU565) [GR]	area over the GR curve (SUM229PE) [GR]	area over the GR curve (MDAMB175VII) [GR]	area over the GR curve (184A1) [GR]	area over the GR curve (HCC38) [GR]	area over the GR curve (SKBR3) [GR]	area over the GR curve (HCC70) [GR]	area over the GR curve (PDXHCI002) [GR]	area over the GR curve (HCC1937) [GR]	area over the GR curve (HCC1395; main component drawn) [GR]	area over the GR curve (MCF10A; main component drawn) [GR]	area over the GR curve (HCC38; main component drawn) [GR]	area over the GR curve (SKBR3; main component drawn) [GR]	area over the GR curve (HCC70; main component drawn) [GR]	area over the GR curve (PDXHCI002; main component drawn) [GR]	area over the GR curve (HCC1937; main component drawn) [GR]
NC(=O)Nc1cc(-c2cccc(F)c2)sc1C(=O)N[C@H]1CCCNC1 [AZD7762] (max 10 µM)	0.253	0.0464	0.857	0.225	0.338	0.588	0.816	-0.0013	0.916	0.88	0.839	0.694	0.447	–	–	–	–	–	–	–
Cc1nc(NC(=O)N2CCC[C@H]2C(N)=O)sc1-c1ccnc(C(C)(C)C(F)(F)F)c1 [Alpelisib/BYL719] (max 10 µM)	0.0161	0.468	0.023	0.113	0.472	0.128	0.563	0.136	0.0391	0.379	0.112	0.063	0.0501	–	–	–	–	–	–	–
CN(C)C/C=C/C(=O)Nc1ccc(O[C@@H]2CCC[C@@H](Nc3ncc(Cl)c(-c4c[nH]c5ccccc45)n3)C2)cc1 [BSJ-01-175] (max 10 µM)	0.637	0.826	1.01	0.3	1.06	0.745	1.21	1.15	0.603	1.04	1.07	0.906	0.462	–	–	–	–	–	–	–
CC(=O)c1c(C)c2cnc(Nc3ccc(N4CCN(CCOCCOCCOCCNC(=O)COc5cccc6c5C(=O)N(C5CCC(=O)NC5=O)C6=O)CC4)cn3)nc2n(C2CCCC2)c1=O (centres undefined) [BSJ-03-123] (max 10 µM)	0.194	0.464	0.323	0.323	0.34	0.286	0.446	0.708	0.566	0.338	0.181	0.246	0.0357	–	–	–	–	–	–	–
CC(C)Nc1cc(-c2c[nH]c(C(=O)N[C@H](CO)c3cccc(Cl)c3)c2)c(Cl)cn1 [BVD523] (max 10 µM)	0.0496	-0.0171	0.259	0.311	0.061	0.279	0.472	0.704	0.237	0.124	0.296	0.168	0.119	–	–	–	–	–	–	–
Cc1c(N)nc([C@H](CC(N)=O)NC[C@H](N)C(N)=O)nc1C(=O)N[C@H](C(=O)N[C@H](C)[C@@H](O)[C@H](C)C(=O)N[C@H](C(=O)NCCc1nc(-c2nc(C(=O)NCCC[S+](C)C)cs2)cs1)[C@@H](C)O)[C@@H](OC1OC(CO)C(O)C(O)C1OC1OC(CO)C(O)C(OC(N)=O)C1O)c1cnc[nH]1 (some centres undefined) [Bleomycin] (max 10 µM)	–	–	–	–	–	–	–	–	–	–	–	–	–	0.607	0.449	0.485	0.259	0.419	0.272	0.416
Nc1cc(C(F)(F)F)c(-c2cc(N3CCOCC3)nc(N3CCOCC3)n2)cn1 [Buparlisib/NVP-BKM120] (max 10 µM)	0.322	0.53	0.308	0.249	0.662	0.279	0.705	0.268	0.254	0.585	0.435	0.229	0.263	–	–	–	–	–	–	–
COc1cc2nccc(Oc3ccc(NC(=O)C4(C(=O)Nc5ccc(F)cc5)CC4)cc3)c2cc1OC [Cabozantinib] (max 10 µM)	0.0366	-0.109	0.0651	-0.0114	-0.0067	0.0356	-0.124	0.0128	0.0283	-0.0595	0.255	0.0362	0.0053	–	–	–	–	–	–	–
COc1cc2c(Oc3ccc4[nH]c(C)cc4c3F)ncnc2cc1OCCCN1CCCC1 [Cediranib/AZD2171] (max 10 µM)	0.064	-0.139	0.223	0.031	-0.0924	0.0369	0.193	0.0594	0.202	0.063	0.0746	0.255	0.044	–	–	–	–	–	–	–
Cc1cc(Nc2ncc(Cl)c(Nc3ccccc3S(=O)(=O)C(C)C)n2)c(OC(C)C)cc1C1CCNCC1 [Ceritinib/LDK378] (max 10 µM)	0.0642	-0.229	0.215	0.184	0.0682	0.0779	-0.0348	0.347	0.208	0.301	0.0676	0.503	0.133	–	–	–	–	–	–	–
N.N.[Cl][Pt][Cl] [Cisplatin] (max 10 µM)	–	–	0.386	0.0952	–	–	–	–	0.257	0.0978	0.253	0.201	0.327	–	–	–	–	–	–	–
Cc1nc(Nc2ncc(C(=O)Nc3c(C)cccc3Cl)s2)cc(N2CCN(CCO)CC2)n1 [Dasatinib] (max 10 µM)	0.379	0.695	0.598	0.339	0.155	0.529	0.972	0.264	0.145	-0.0183	1.06	0.376	0.442	–	–	–	–	–	–	–
COc1cccc2c1C(=O)c1c(O)c3c(c(O)c1C2=O)C[C@@](O)(C(=O)CO)C[C@@H]3O[C@H]1C[C@H](N)[C@H](O)[C@H](C)O1 [Doxorubicin] (max 3.162 µM)	0.642	0.578	0.637	0.655	0.604	0.453	0.908	0.706	0.78	0.942	0.775	0.969	0.579	–	–	–	–	–	–	–
COc1cc([C@@H]2c3cc4c(cc3[C@@H](O[C@@H]3O[C@@H]5CO[C@@H](C)O[C@H]5[C@H](O)[C@H]3O)[C@H]3COC(=O)[C@H]23)OCO4)cc(OC)c1O [Etoposide] (max 10 µM)	–	–	0.389	0.415	–	–	–	–	0.449	0.403	0.454	0.488	0.393	–	–	–	–	–	–	–
CC[C@@]1(O)C(=O)OCc2c1cc1n(c2=O)Cc2cc3c(CN(C)C)c(O)ccc3nc2-1 [Topotecan] (max 10 µM)	–	–	1.08	0.765	–	–	–	–	1.07	0.794	1.06	1.02	0.837	–	–	–	–	–	–	–
